# From patent US6375969B1, “Broadcast carriers for pesticides and their use” (priority 1996, dated 2002)
# Test: Volatile materials test in ventilating oven
# Format: physicochemical
# Details: after 2 hours at 141° F. (=60.5° C.) in a ventilating oven
# Description: The moisture content of raw material Celite 500 is 3.7 weight percent. So, the weight of raw material Celite 500 is close to the dry weight of Celite 500. According to the product specifications of Supragil MNS/90, Soprophor S/40-P, and Supragil WP, the moisture contents of these components are no higher than 2 weight percent. Also, samples of chlorpyrifos technical were tested for volatile materials in a ventilating oven. The weight loss after 2 hours at 141° F. (=60.5° C.) was only 0.6 weight percent. […] Therefore, the dry spreadable granular product as manufactured above contains approximately 2.0 weight percent chlorpyrifos.
smiles,measurement,value
"CCOP(=S)(OCC)Oc1nc(Cl)c(Cl)cc1Cl [chlorpyrifos technical, Chlorpyrifos]",weight loss (volatile materials),0.6 weight percent
